Measured values taken from patent US9833436B2, “Method of preparing drug agglomerate” (PharmaDax Inc., priority 2014, dated 2017).
Counter-ions that a name gives are not always drawn. Like-named read-outs stand apart in the source and are kept apart here.

Legend:
[1] = Compatibility with HPMCP HP-50 by residual content (% assay) after storage; type: physicochemical
Experimental: In comparison, duloxetine crude materials and granulated duloxetine particles having similar size obtained by the conventional wet granulation were also assayed. The granulated duloxetine particles were granulated by the same second solvent (e.g., acetonitrile), which was used in the process of spherical agglomeration, and dried at 50° C. until LOD<1%. An enteric material, hypromellose phthalate (HPMCP) HP-50, which is known to cause degradation of duloxetine, was used in this test.
FIGS. 4A-D are electronic microscopic diagram of duloxetine in different states. […] In Table 7, “C” refers to crude material. “SA” refers to spherical agglomerates. “G” refers to granulated duloxetine particles.

[2] = pH 6.8 PBS 500 mL, basket 100 rpm, 37° C.

CNCC[C@H](Oc1cccc2ccccc12)c1cccs1 [Crude, duloxetine hydrochloride]
% Assay (residual content) [1]: 98.39%
Duloxetine Release (%) ([2]; 3 min): 89.3%
Duloxetine Release (%) ([2]; 6 min): 95.8%
Duloxetine Release (%) ([2]; 9 min): 97.5%
Duloxetine Release (%) ([2]; 12 min): 98.4%
Duloxetine Release (%) ([2]; 15 min): 98.8%
Duloxetine Release (%) ([2]; 18 min): 99.1%
Duloxetine Release (%) ([2]; 21 min): 99.4%
Duloxetine Release (%) ([2]; 30 min): 99.9%
Duloxetine Release (%) ([2]; 60 min): 100.9%
